This note sets out measurements from patent publication US20230272077A1, “PD-1 SIGNAL INHIBITOR COMBINATION THERAPY” (KYOTO UNIVERSITY, priority 2015, published 2023).

One assay deals with PGC-1α. Nature of the assay: PGC-1α expression (Western blotting, real-time RT-PCR). The settings on record: combination therapy together with PD-L1 antibody. The class given is in vivo, mouse. On the procedure:
RNA was isolated from CD8^+ T cells or tumor cells with the RNeasy Mini Kit (Qiagen), followed by cDNA synthesis by reverse transcription. Real-time PCR for PGC-1α was performed using the following primers: Forward […] (SEQ ID NO: 1) and Reverse […] (SEQ ID NO: 2). To analyze the expression levels of genes associated with apoptosis and mitochondrial energy metabolism, RT2 Profiler PCR Array Gene Expression Kit PAMM-012Z or PAMM-008Z (Qiagen) was used. The list of genes included in this assay can be found in www.sabiosciences.com/Apoptosis.php.
CD8^+ T cells were isolated using mouse CD8 Microbeads (Miltenyi Biotec). After washing with PBS twice, 2×10^6 cells were solubilized in a lysis buffer containing 30 mM Tris-HCl (pH.7.4), 150 mM NaCl, 10% glycerol, 0.1% SDS, 1% Triton-X-100, 0.05% Na-Doc, 5 mM EDTA (pH.8.0), protease inhibitor mixture (Roche Molecular Biochemicals) and phosphatase inhibitors (Nacalai Tesque). After measurement of protein concentrations by DC protein assay (Bio-Rad), 4 μg of proteins was mounted on 4 to 20% gradient Mini-PROTEAN TGX Gels (Bio-Rad) and electroblotted onto nitrocellulose membranes, which were then incubated in a blocking buffer of TBS containing 1% BSA. Primary antibody incubations were carried out overnight at 4° C. in blocking buffer. After washing, secondary antibody incubations were carried out at room temperature for 40 min in blocking buffer. Blots were developed with enhanced chemiluminescence (Amersham Pharmacia). Primary antibodies recognizing the following proteins were used: Phospho-mTOR (P-mTOR) (Cat #5536), Phospho-AMPKa (P-AMPK) (#2535), Phospho-p70 S6 Kinase (P-S6K) (#9205), 4E-BP1 (#9644), Phospho-Acetyl-CoA Carboxylase (P-ACC) (#3661) and SIRT1 (#9475). All the primary antibodies were obtained from Cell Signaling Technology. An antibody recognizing PGC-1α (SC-13067) was obtained from Santa Cruz.
(Immunoblotting shows a protein as a band on a membrane.)

Another assay has as its system MC38. Nature of the assay: Mouse therapy model, MC38-bearing mice (tumor volume, survival). It counts as in vivo. The conditions noted are these: MC38-bearing mice; for animal survival, triple combination of mTOR activator, AMPK activator and PD-L1 antibody / antitumor effect of triple combination of mTOR activator, AMPK activator and PD-L1 antibody: both activators with PD-L1 antibody; for enhancement of antitumor effect of PD-L1 antibody (tumor volume) / survival rate: reagent combined with PD-L1 antibody vs PD-L1 antibody alone; for antitumor effect when administered alone: reagent alone, no PD-L1 antibody, tumor volume. On the procedure: (§1) MC38 (5×10^5) and MethA (5×10^5) cells were intradermally injected on the right flank. MC38 was inoculated into C57BL/6 mice and MethA was inoculated into BALB/c mice. For monotherapy, mice were intraperitoneally injected with 150 μg of PD-L1 mouse antibody (1-111A) (prepared by the laboratory of the present inventors) 5 days after the tumor inoculation. Therapy with PD-L1 antibody alone was repeated three times every 5 days. For combination therapy, administration of PD-L1 antibody and chemical agents started 7 days after tumor injection. Chemical agents were injected at a regular interval of 2 days and PD-L1 antibody at a regular interval of 5 days (shown in FIG. 3b). Tumors were measured on every alternate day, and tumor volumes were calculated using the formula for typical ellipsoid, π×(length×breadth×height/6).
(§2) The following chemical reagents were used at the indicated concentrations for combination therapy. AMPK activator: A769662, 6 mg/kg (Abcam); mTOR activator: MHY1485, 3 μg/kg (Sigma-Aldrich); uncoupler: carbonylcyanide-p-trifluoromethoxyphenylhydrazone (FCCP), 1.2 mg/kg (Abcam); uncoupler: 2,4-Dinitrophenol (DNP), 1.7 mg/kg (Aldrich); SIRT1 activator: resveratrol, 0.5 mg/kg (Abcam); ROS scavenger: Mn (III) tetrakis (4-benzoic acid) porphyrin (MnTBAP), 1.25 mg/kg (Calbiochem); ROS generator: tert-butyl hydroperoxide solution (Luperox TBH70X), 200 μL/kg (Sigma-Aldrich); ATP synthase inhibitor: oligomycin, 250 μg/kg (Sigma-Aldrich); paraquat 2 mg/kg (Nakalai Tesque); oltipraz 1.9 mg/kg (Sigma); bezafibrate 1 mg/kg (ChemCruz).
All reagents were freshly prepared just before use. Each reagent was dissolved in the solvent indicated in the instructions. Note that the AMPK activator, mTOR activator, uncouplers and SIRT1 activator were prepared from fresh unused vials in each series of experiments. Dissolved reagents were diluted in PBS, and a 200 l aliquot was injected per mouse.
Murine colon adenocarcinoma MC38 cells (5×10^5) were inoculated into C57BL/6 mice. After 7 days, anti-PD-L1 antibody (1-111A, 150 μg) and AMPK inhibitor (Compound C: 200 μg in BBS, 200 μL) were administered intraperitoneally. Anti-PD-L1 antibody was administered 3 times at a regular interval of 6 days; Compound C (C.C) was administered 7 times at a regular interval 2 days.
MC38 cells (5×10^5) were inoculated into C57BL/6 mice. After 7 days, anti-PD-L1 antibody (1-111A, 150 μg) and PGC-1α/transcription factor complex activator (2-(4-{2-[(4-chlorobenzoyl)amino]ethyl}phenoxy)-2-methylpropanoic acid (bezafibrate): 10 ug in PBS, 200 ul) were administered intraperitoneally. Anti-PD-L1 antibody was administered 3 times at a regular interval of 6 days; bezafibrate was administered 7 times at a regular interval 2 days.

A further assay has as its system MethA. Nature of the assay: Mouse therapy model, MethA-transplanted BALB/c mice (tumor volume). The settings on record: MethA in BALB/c mice, combined with PD-L1 antibody. It counts as in vivo. On the procedure:
as §1, §2
MethA cells (5×10^5) were inoculated into BALB/c mice. After 7 days, anti-PD-L1 antibody (1-111A, 80 μg) and Foxo1 inhibitor (5-amino-7-(cyclohexylamino)-1-ethyl-6-fluoro-4-oxo-1,4-dihydroquinoline-3-carboxylic acid, Calbiochem) (2 mg/kg) were administered intraperitoneally.
Fibrosarcoma MethA (Cell Resource Center for Biomedical Research) cells (5×10^5) were inoculated into BALB/c mice. After 7 days, anti-PD-L1 antibody (1-111A, 60 μg) and Aminoleban (Otsuka Pharmaceutical, 400 μl/mouse) were administered.

In another assay the test system is tumor cells. Nature of the assay: Phenotypic and transcription profile analysis of tumor cells from mice treated with reagent alone. Set-up: species or system mouse. The conditions noted are these: tumor cells from mice treated with reagent alone in vivo. An excerpt: FIG. 12. […] After enzymatic digestion, tumor cells were sorted with a cell isolation kit capable of excluding non-tumor cells. The isolated tumor cells were further purified with Aria and used in the following experiments. b) Tumor cells were stained with antibodies targeting PD-L1, MHC class I, CD155 (ligand of TIGIT), and VISTA or with dyes for mitochondrial mass, membrane potential, and superoxide. c) Expression levels of genes associated with mitochondrial energy metabolism and apoptosis were examined using RT^2 profiler PCR Kit.
For analyzing draining lymph nodes, cells from axillary, brachial, and inguinal lymph nodes on the right side of tumor-inoculated mice were harvested and mixed. Averaged cell numbers per one lymph node were used as absolute cell numbers. For tumor analysis, tumor tissues were minced into 2- to 3-mm pieces with scissors and digested with collagenase type IV (Thermo Fisher Scientific) using a gentle MACS Dissociator (Miltenyi Biotec). The numbers of tumor cells per mg were used as absolute numbers. Tumor cells were isolated from digested tumor tissues using a Tumor Cell Isolation Kit, mouse (Miltenyi Biotec). This kit purifies tumor cells by excluding lymphocytes, red blood cells, fibroblasts, endothelial cells and tumor-associated stromal cells. The resultant tumor cell population was further isolated/purified with FACS Aria (BD Biosciences). […]

Entries after “also recorded” stand apart in the source; their conditions may differ.

Take `N#Cc1c(O)c2c(-c3ccc(-c4ccccc4O)cc3)csc2[nH]c1=O` [AMPK activator, 6,7-dihydro-4-hydroxy-3-(2′-hydroxy[1,1′-biphenyl]-4-yl)-6-oxo-thieno[2,3-b]pyridine-5-carbonitrile]: the “expression levels of PGC-1α protein and mRNA” value in the assay with PGC-1α is “increased”. In the assay with MC38, the “animal survival, triple combination of mTOR activator, AMPK activator and PD-L1 antibody” value is “improved animal survival”; the “antitumor effect of triple combination of mTOR activator, AMPK activator and PD-L1 antibody” value is reported as “further enhanced the effect of PD-L1 antibody”; the “enhancement of antitumor effect of PD-L1 antibody (tumor volume)” value (shortened to “enhancement”) is reported as “moderately augmented the efficacy of PD-1 blockade therapy in the early phase”.
As for `CCn1cc(C(=O)O)c(=O)c2c(N)c(F)c(NC3CCCCC3)cc21` [Foxo1 inhibitor, 5-amino-7-(cyclohexylamino)-1-ethyl-6-fluoro-4-oxo-1,4-dihydroquinoline-3-carboxylic acid], the entries for the “enhancement” value in the assay with MethA and with MethA (listed as AS1842856) were “enhances the efficacy of anti-PD-L1 antibody therapy” and “Synergistic effect”, respectively.
On to `CC(C)(C)OO` [Luperox, tert-butyl hydroperoxide], for which the “changes in immune-regulatory surface markers and transcriptional profiles of tumor cells” value in the assay with tumor cells is given as “no significant changes; also recorded: little effect on tumor cells in vivo”. In the assay on MC38 (DNP and Luperox both with PD-L1 antibody), the “antitumor activity of triple combination of PD-L1 antibody, DNP and Luperox” value is “stronger antitumor activity; also recorded: Antitumor effect is enhanced”. In the assay with MC38, the “antitumor effect when administered alone” value is recorded as “no antitumor activity was observed”, the “enhancement” value was “remarkably enhanced the antitumor effect; also recorded: Synergistic effect” and the survival rate entry is “improved the survival rate”.
Consider `O=C(O)c1ccc(-c2c3nc(c(-c4ccc(C(=O)O)cc4)c4ccc([n-]4)c(-c4ccc(C(=O)O)cc4)c4nc(c(-c5ccc(C(=O)O)cc5)c5ccc2[n-]5)C=C4)C=C3)cc1.[Mn+3]` [MnTBAP, Mn (III) tetrakis (4-benzoic acid) porphyrin], for which the “effect of ROS scavenger on combination therapy using PD-L1 antibody and uncouplers” value in the assay with MC38 (added to PD-L1 antibody + FCCP or DNP) is on record as “inhibited”.
Consider `Oc1ccc(/C=C/c2cc(O)cc(O)c2)cc1` [Resveratrol, trans-3,5,4′-trihydroxystilbene], for which, in the assay on MC38, the “antitumor effect when administered alone” value is on record as “no tumor growth inhibitory effect was observed”, the “enhancement” value is reported as “remarkably reduced tumor sizes; also recorded: remarkable tumor inhibitory effect” and the survival rate result was “improved the survival rate”.
In the case of `O=[N+]([O-])c1ccc(Nc2nc(N3CCOCC3)nc(N3CCOCC3)n2)cc1` [mTOR activator, 4,6-Di-4-morpholinyl-N-(4-nitrophenyl)-1,3,5-triazin-2-amine], the “expression levels of PGC-1α protein and mRNA” value in the assay on PGC-1α is given as “increased”. In the assay on MC38, the “animal survival, triple combination of mTOR activator, AMPK activator and PD-L1 antibody” value was “improved animal survival”; the “antitumor effect of triple combination of mTOR activator, AMPK activator and PD-L1 antibody” value is given as “further enhanced the effect of PD-L1 antibody”; the “enhancement” value is recorded as “moderately augmented the efficacy of PD-1 blockade therapy in the early phase”.
For the molecule `C[n+]1ccc(-c2cc[n+](C)cc2)cc1.[Cl-].[Cl-]` [paraquat, 1,1′-dimethyl-4,4′-bipyridinium dichloride], the figures for the “enhancement” value with MC38 and with MethA were “enhanced the effect for PD-1 blockade” and “enhanced the antitumor effect of PD-L1 antibody”, respectively.
